Experimental data from patent publication US20190092720A1, “FUNCTIONALIZED BENZAMIDE DERIVATIVES AS ANTIVIRAL AGENTS AGAINST HBV INFECTION” (BARUCH S. BLUMBERG INSTITUTE, priority 2012, published 2019).

How the values were obtained:
[1] = system: HBV replication in AML12HBV10 cells; assay: Antiviral efficacy in AML12HBV10 cells (HBV DNA dot-blot hybridization); type: cell-based, Hepatitis B virus (HBV); settings: Hepatitis B virus, AML12HBV10, 48 h, read-out: AML12HBV10 EC50, concentration that reduces the amount of HBV DNA by 50%, serial dilution 50 μM to 0.39 μM
Protocol: The HBV replication inhibitors of the present invention are capable of treating and preventing diseases associated with HBV infection.
The antiviral efficacy of the compounds of the disclosure, as presented in Table 1, were determined in AML12HBV10 cells. AML12HBV10 is an immortalized murine hepatocyte (AML12)-derived stable cell line that supports robust HBV replication in a tetracycline inducible manner (Xu et al.). The cells were seeded into 96 well plates at a density of 2×10^4 cells per well and cultured in DMEM/F12 media with 10% fetal bovine serum in the absence of tetracycline to allow pgRNA transcription and HBV DNA replication. One day after seeding, cells were left untreated or treated with a serial dilution of testing compounds, ranging from 50 μM to 0.39 μM, for 48 hours. Cells were then lysed by adding into each well of 100 μl lysis buffer containing 10 mM Tris-HCl (pH 7.6), 1 mM EDTA, 100 mM NaCl and 1% NP-40 and incubated at 37° C. for 30 minutes. Half amount (50 μl) of cell lysate from each well was combined with equal volume of denaturing solution containing 0.5N NaOH and 1.5M NaCl. After 5 minute incubation, 100 µl of neutralization solution (1M Tris-HCl, pH 7.4, 1.5M NaCl) was added into each well. The denatured cell lysates (totally 200 μl) were applied onto Nylon membrane using 96-well dot-blot manifold (Biorad). HBV DNA in the cell lysates were determined by dot-blot hybridization with alpha-^32P-UTP-labelled riboprobe specific for HBV minus strand DNA. The antiviral efficacy of a compound of the disclosure was expressed as the concentration that reduces the amount of HBV DNA by 50% (EC50).

encapsidated pgRNA = assay: Encapsidated pgRNA by Northern blot in AML12HBV10 cells; type: cell-based, Hepatitis B virus (HBV); settings: 2 days, FIG. 1 panel C
Protocol: (§1) FIG. 1. Antiviral mechanism of the compounds of the present invention. AML12HBV10 cells were left untreated (NT) or treated with the indicated concentrations of the compounds of the disclosure Compound 6 and Compound 19, respectively, for 2 days. Bay-4109 (3 µM) or AT-61 (25 µM) served as positive controls. (A) Intracellular viral RNA was determined by Northern blot hybridization. Ribosomal RNA served as a loading control. (B) The total amounts of nucleocapsids were determined by a particle gel assay. (C) Encapsidated pgRNA were extracted and measured by Northern blot. (D) Nucleocapsid-associated HBV DNA was quantified by alkaline-treatment of nucleocapsids on the membrane following the particle gel assay and hybridized with a HBV-specific riboprobe. (E) HBV DNA replication intermediates were extracted and determined by Southern blot hybridizations.
Determination of encapsidated pgRNA: AML12HBV10 cells were lysed by addition of 600 μl of lysis buffer (50 mM Tris-HCl [pH 7.5], 1 mM EDTA, 150 mM NaCl, 1% NP-40) into each well of 12-well plates. The nuclei were removed by centrifugation at 5,000 g for 10 minutes. One-half of the sample was mixed with 6 U of micrococcal nuclease (Pharmacia) and 15 μl of 100 mM CaCl2 and incubated for 15 minutes at 37° C. to digest free nucleic acids. The reaction was stopped with 6 μl of 0.5 M EDTA, and capsids were precipitated by adding 125 μl of 35% polyethylene glycol 8000 in 1.75 M NaCl to the reaction and incubating in ice for 30 minutes, followed by centrifugation at 6,000 g for 10 minutes at 4° C. Pellets were re-suspended in 50 μl of TNE buffer (10 mM Tris-HCl [pH 8], 100 mM NaCl, 1 mM EDTA). pgRNA was extracted by the addition of 1 ml of Trizol reagent. The encapsidated pgRNA were electrophoresed through a 2.2 M formaldehyde-1% agarose gel, transferred to a nylon membrane, and immobilized by UV cross-linking (Stratagene). Hybridization was performed with an alpha-^32P-UTP labeled riboprobe specific for plus strand of HBV genome.

[2] = Cytotoxicity in AML12HBV10 cells (MTT assay); type: cell-based, murine; settings: mouse, concentration that reduces viability by 50%, serial dilution 50 μM to 0.39 μM
Protocol: Determination of cytotoxicity of compounds of the disclosure in AML12HBV10 cells: To determine the cytotoxicity of the compounds, AML12HBV10 cells were seeded into 96-well plates at a density of 2×10^4 cells per well and cultured in DMEM/F12 media with 10% fetal bovine serum in the absence of tetracycline to allow pgRNA transcription and HBV DNA replication. One day after seeding, cells were left untreated or treated with a serial dilution of testing compounds, ranging from 50 μM to 0.39 μM, for 48 hours. The cell viability was measured by a MTT assay, following procedure provided by the manufacturer (Promega). The cytotoxicity of a compound was expressed as the concentration of compound that reduces the viability of the cells by 50% (CC50).

HBV capsids = assay: Particle gel assay of nucleocapsids in AML12HBV10 cells; type: cell-based, Hepatitis B virus (HBV); settings: 2 days, FIG. 1 panel B
Protocol: as §1
Procedures of viral capsids and nucleocapsid-associated DNA analysis: AML12HB10 cells were lysed by addition of 300 μl buffer containing 10 mM Tris-HCl (pH7.6), 100 mM NaCl, 1 mM EDTA and 0.1% NP-40 to each well of 12-well plate. Cell debries were removed by centrifugation at 5000 g for 10 minutes. Ten microliters of the clarified cell lysates were fractionated by electrophoresis through nondenaturing 1% agarose gels and transferred to a nitrocellulose filter by blotting with TNE buffer (10 mM Tris-HCl, pH7.6; 150 mM NaCl and 1 mM EDTA). HBV capsids were detected by probing the membrane with an antibody against HBV core protein (DAKO). […] To detect capsid associated HBV DNA, the membrane were treated with buffer containing 0.5N NaOH and 1.5 M NaCl for 5 minutes and followed by neutralization with buffer containing 1 M TRIS-HCl and 1.5M NaCl for 5 minutes. The viral DNA was detected by hybridization with a α-^32P-UTP (800 Ci/mmol, Perkin Elmer) labeled minus strand specific full-length HBV riboprobe (Xu et al.).

O=C(Nc1cccc(Cl)c1)c1scc2c1OCCO2 [Entry 6]
EC50 [1]: 400 nM
level of encapsidated pgRNA (encapsidated pgRNA): dose-dependently reduced
CC50 at 48 h [2]: > 50000 nM
capsid formation (HBV capsids): did not significantly affect
